Assay [1] has as its system CA28 (DNA, aptamer) CGGACTTGGGTGGGTGGGTTGGGGTACG
The assay can be described thus: E-AB sensor, square-wave voltammetry. The note with it: working buffer; apparent; surface-bound; KD fixed in fit.

Assay [2] deals with CA40 (DNA, aptamer) ACGCTCCGGACTTGGGTGGGTGGGTTGGGGTACGGTGCGT
The experiment in a line: fluorescence titration (intrinsic irinotecan fluorescence). The note with it: working buffer; 1 µM irinotecan titrated with aptamer; excitation 370 nm.

In assay [3] the test system is CA40_2MM (DNA, aptamer) ACGCTCTGGACTTGGGTGGGTGGGTTGGGGTACGGTGTGT
The experiment in a line: E-AB sensor, square-wave voltammetry. The note with it: working buffer; apparent; surface-bound.

Assay [4] deals with CA36 (DNA, aptamer) GCTCCGGACTTGGGTGGGTGGGTTGGGGTACGGTGC
The assay can be described thus: E-AB sensor, square-wave voltammetry. Conditions: working buffer; apparent; surface-bound.

The test system of assay [5] is CA32 (DNA, aptamer) TCCGGACTTGGGTGGGTGGGTTGGGGTACGGT
The experiment in a line: E-AB sensor, kinetic differential measurement (10 and 120 Hz). The note with it: buffer; apparent; co-deposited 1:1 with linear probe; surface-bound.

The test system of assay [6] is CA16 (DNA, G4) GGGTGGGTGGGTTGGG
The assay can be described thus: E-AB sensor, square-wave voltammetry. Conditions: working buffer; apparent; surface-bound; KD fixed in fit.

Assay [7] deals with CA40_1MM (DNA, aptamer) ACGCTCCGGACTTGGGTGGGTGGGTTGGGGTACGGTGTGT
The assay can be described thus: E-AB sensor, square-wave voltammetry. Conditions: working buffer; apparent; surface-bound.

In assay [8] the test system is CA32 (DNA, aptamer) TCCGGACTTGGGTGGGTGGGTTGGGGTACGGT
The assay can be described thus: E-AB sensor, square-wave voltammetry. The note with it: working buffer; apparent; surface-bound.

On to `CCc1c2c(nc3ccc(OC(=O)N4CCC(N5CCCCC5)CC4)cc13)-c1cc3c(c(=O)n1C2)COC(=O)[C@]3(O)CC`, for which the binding entry in assay [1], in assay [3], in assay [4], in assay [6], in assay [7] and in assay [8] was “yes” throughout. For the same compound, the KD amounted to 0.475 ± 0.01 µM in assay [2] and 16.0 ± 1.3 µM in assay [5].

Source of the values: paper PMC6788505 (2019).
